# Experimental data reported in patent US20250230165A1, “HETEROCYCLIC COMPOUNDS FOR USE IN THE TREATMENT OF CANCER” (ARTIOS PHARMA LIMITED, priority 2021, published 2025).
# Molecular target: T1, Human Polθ polymerase domain (aa1820-2590) (Homo sapiens, UniProt O75417)
# T1 construct: Human Polθ polymerase domain (aa1820-2590) was expressed in E. coli; made in house; host or cells: E. coli
# T1 sequence (O75417 1820-2590): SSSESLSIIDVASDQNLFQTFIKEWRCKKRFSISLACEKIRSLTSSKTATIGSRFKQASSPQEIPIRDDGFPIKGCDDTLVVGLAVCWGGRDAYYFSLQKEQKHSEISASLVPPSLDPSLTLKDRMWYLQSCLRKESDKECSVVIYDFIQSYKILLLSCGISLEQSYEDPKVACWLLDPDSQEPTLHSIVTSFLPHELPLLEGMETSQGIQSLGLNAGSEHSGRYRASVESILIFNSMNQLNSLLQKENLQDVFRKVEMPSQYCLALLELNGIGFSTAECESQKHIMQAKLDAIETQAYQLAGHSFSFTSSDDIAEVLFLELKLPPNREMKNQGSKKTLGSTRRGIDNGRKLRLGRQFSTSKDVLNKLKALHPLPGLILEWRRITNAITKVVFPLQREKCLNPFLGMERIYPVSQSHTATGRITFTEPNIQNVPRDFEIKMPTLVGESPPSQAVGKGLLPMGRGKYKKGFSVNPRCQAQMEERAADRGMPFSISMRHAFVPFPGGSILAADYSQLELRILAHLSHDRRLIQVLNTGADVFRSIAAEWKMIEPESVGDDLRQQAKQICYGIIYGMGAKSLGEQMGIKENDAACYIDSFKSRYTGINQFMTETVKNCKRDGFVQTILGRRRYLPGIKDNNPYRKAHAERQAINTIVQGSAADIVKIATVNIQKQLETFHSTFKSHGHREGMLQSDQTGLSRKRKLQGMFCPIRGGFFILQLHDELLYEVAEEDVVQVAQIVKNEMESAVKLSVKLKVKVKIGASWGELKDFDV
# Experiment: Polθ Polymerase Domain Kinact/KI Assay (PicoGreen)
# Type: biochemical
# Conditions: 0.8 nM Polθ, 100 nM DNA substrate, kobs vs [I] fit for 2-step covalent inhibitor
# Outline: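 Enzyme 0.8 nM, annealed DNA substrate 100 nM, […]; 25 mM Tris pH 7.5, 5% glycerol, 0.01% Triton X-100, 0.1 mg/ml BSA, 1 mM DTT, 1% DMSO. Quench with EDTA at timepoints to 60 min; PicoGreen read. kobs from time courses → Kinact/KI.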
row,Kinact/Kl,Compound
1,630000 M⁻¹ s⁻¹,"C=CC(=O)N1Cc2ccc(CN3C[C@H]4CC(=O)N(c5cc(C(F)(F)F)cc(C)n5)[C@@H]4C(=O)N(C)c4cccc(Cl)c43)cc2C1CC#N (single isomer, unassigned) [Example 288a]"
2,1.19e+06 M⁻¹ s⁻¹,"C=CC(=O)N1CC(N2CCN(CCN3C[C@H]4CC(=O)N(c5cc(C(F)(F)F)cc(C)n5)[C@@H]4C(=O)N(C)c4cc(F)cc(Cl)c43)CC2)C1 [Example 17, (3aR,11aS)-5-(2-(4-(1-acryloylazetidin-3-yl)piperazin-1-yl)ethyl)-6-chloro-8-fluoro-10-methyl-1-(6-methyl-4-(trifluoromethyl)pyridin-2-yl)-1,3a,4,5,10,11a-hexahydro-2H-benzo[b]pyrrolo[2,3-f][1,4]diazocine-2,11(3H)-dione]"
3,320000 M⁻¹ s⁻¹,"C=CC(=O)N1CC(N2CCCC(CN3C[C@H]4CC(=O)N(c5cc(C(F)(F)F)cc(C)n5)[C@@H]4C(=O)N(C)c4cccc(F)c43)C2)C1 (single isomer, unassigned) [Example 225a]"
4,2.04e+06 M⁻¹ s⁻¹,"C=CC(=O)N1CCC(N2CCC(CN3C[C@H]4CC(=O)N(c5cc(C(F)(F)F)cc(C)n5)[C@@H]4C(=O)N(C)c4cccc(Cl)c43)CC2)C1 (stereo partly drawn) [Example 222, (3aR,11aS)-5-((1-(1-acryloylpyrrolidin-3-yl)piperidin-4-yl)methyl)-6-chloro-10-methyl-1-(6-methyl-4-(trifluoromethyl)pyridin-2-yl)-1,3a,4,5,10,11a-hexahydro-2H-benzo[b]pyrrolo [2,3-f][1,4] diazocine-2,11(3H)-dione]"
5,540000 M⁻¹ s⁻¹,"C=CC(=O)N1CC(n2cc(CN3C[C@H]4CC(=O)N(c5cc(C(F)(F)F)cc(C)n5)[C@@H]4C(=O)N(C)c4cccc(F)c43)cn2)C1 [Example 121, (3aR,11aS)-5-((1-(1-acryloylazetidin-3-yl)-1H-pyrazol-4-yl)methyl)-6-fluoro-10-methyl-1-(6-methyl-4-(trifluoromethyl)pyridin-2-yl)-1,3a,4,5,10,11a-hexahydro-2H-benzo[b]pyrrolo[2,3-f][1,4]diazocine-2,11(3H)-dione]"
6,940000 M⁻¹ s⁻¹,"C=CC(=O)N1CCN2CCN(C(=O)CN3C[C@H]4CC(=O)N(c5cc(C(F)(F)F)cc(C)n5)[C@@H]4C(=O)N(C)c4cccc(F)c43)CC2C1 (mixture of isomers) [Example 76b, (3aR,11aS)-5-(2-((S/R)-8-acryloyloctahydro-2H-pyrazino[1,2-a]pyrazin-2-yl)-2-oxoethyl)-6-fluoro-10-methyl-1-(6-methyl-4-(trifluoromethyl)pyridin-2-yl)-1,3a,4,5,10,11a-hexahydro-2H-benzo[b]pyrrolo[2,3-f][1,4]diazocine-2,11(3H)-dione]"
7,980000 M⁻¹ s⁻¹,"Cc1cc(C(F)(F)F)cc(N2C(=O)C[C@@H]3CN(Cc4cccc(NC(=O)/C=C/CN(C)C)c4)c4c(Cl)cccc4N(C)C(=O)[C@H]32)n1 [Example 247, (E)-N-(3-(((3aR,11aS)-6-chloro-10-methyl-1-(6-methyl-4-(trifluoromethyl)pyridin-2-yl)-2,11-dioxo-1,2,3,3a,4,10,11,11a-octahydro-5H-benzo[b]pyrrolo[2,3-f][1,4]diazocin-5-yl)methyl)phenyl)-4-(dimethylamino)but-2-enamide]"
8,1.86e+06 M⁻¹ s⁻¹,"C=CC(=O)N1CC2(CN(CCN3C[C@H]4CC(=O)N(c5cc(C(F)(F)F)cc(C)n5)[C@@H]4C(=O)N(C)c4cccc(F)c43)CC(=O)N2)C1 [Example 104, (3aR,11aS)-5-(2-(2-acryloyl-6-oxo-2,5,8-triazaspiro[3.5]nonan-8-yl)ethyl)-6-fluoro-10-methyl-1-(6-methyl-4-(trifluoromethyl)pyridin-2-yl)-1,3a,4,5,10,11a-hexahydro-2H-benzo[b]pyrrolo[2,3-f][1,4]diazocine-2,11(3H)-dione]"
9,4.11e+06 M⁻¹ s⁻¹,"C=C(CN(C)C)C(=O)N1CC2(CC(CN3C[C@H]4CC(=O)N(c5cc(C(F)(F)F)cc(C)n5)[C@@H]4C(=O)N(C)c4cccc(C)c43)C2)C1 [Example 328, (3aR,11aS)-5-((2-(2-((dimethylamino)-methyl)acryloyl)-2-azaspiro[3.3]heptan-6-yl)methyl)-6,10-dimethyl-1-(6-meth-yl-4-(trifluorometh-yl)pyridin-2-yl)-1,3a, 4,5,10,11a-hexa-hydro-2H-benzo[b] pyrrolo[2,3-f][1,4] diazocine-2,11(3H)-dione]"
10,970000 M⁻¹ s⁻¹,"C=CC(=O)N1CC(NCCCN2C[C@H]3CC(=O)N(c4cc(C(F)(F)F)cc(C)n4)[C@@H]3C(=O)N(C)c3cccc(F)c32)C1 [Example 70, (3aR,11aS)-5-(3-((1-acryloylazetidin-3-yl)amino)propyl)-6-fluoro-10-methyl-1-(6-methyl-4-(trifluoromethyl)pyridin-2-yl)-1,3a,4,5,10,11a-hexahydro-2H-benzo[b]pyrrolo[2,3-f][1,4]diazocine-2,11(3H)-dione]"
11,2.22e+06 M⁻¹ s⁻¹,"Cc1cc(C(F)(F)F)cc(N2C(=O)C[C@@H]3CN(CCCOC4CN(C(=O)/C=C/CN(C)C)C4)c4c(Cl)cccc4N(C)C(=O)[C@H]32)n1 [Example 44, (3aR,11aS)-6-chloro-5-(3-((1-((E)-4-(dimethylamino)but-2-enoyl)azetidin-3-yl)oxy)propyl)-10-methyl-1-(6-methyl-4-(trifluoromethyl)pyridin-2-yl)-1,3a,4,5,10,11a-hexahydro-2H-benzo[b]pyrrolo[2,3-f][1,4]diazocine-2,11(3H)-dione]"
12,3.61e+06 M⁻¹ s⁻¹,"C=C(CN(C)C)C(=O)NCCCCCN1C[C@H]2CC(=O)N(c3cc(C(F)(F)F)cc(C)n3)[C@@H]2C(=O)N(C)c2cccc(C)c21 [Example 84, N-(5-((3aR,11aS)-6,10-dimethyl-1-(6-methyl-4-(trifluoromethyl)pyridin-2-yl)-2,11-dioxo-1,2,3,3a,4,10,11,11a-octahydro-5H-benzo[b]pyrrolo[2,3-f][1,4]diazocin-5-yl)pentyl)-2-((dimethylamino)methyl)acrylamide]"
13,590000 M⁻¹ s⁻¹,"C=CC(=O)N1CCN(CCCN2C[C@H]3CC(=O)N(c4cc(C(F)(F)F)cc(C)n4)[C@@H]3C(=O)N(C)c3cccc(Cl)c32)CC1 [Example 266, (3aR,11aS)-5-(3-(4-acryloylpiperazin-1-yl)propyl)-6-chloro-10-methyl-1-(6-methyl-4-(trifluoromethyl)pyridin-2-yl)-1,3a,4,5,10,11a-hexahydro-2H-benzo[b]pyrrolo[2,3-f][1,4]diazocine-2,11(3H)-dione]"
14,460000 M⁻¹ s⁻¹,"C=CC(=O)N1CCC(n2cnc(CN3C[C@H]4CC(=O)N(c5cc(C(F)(F)F)cc(C)n5)[C@@H]4C(=O)N(C)c4cccc(F)c43)n2)CC1 [Example 126, (3aR,11aS)-5-((1-(1-acryloylpiperidin-4-yl)-1H-1,2,4-triazol-3-yl)methyl)-6-fluoro-10-methyl-1-(6-methyl-4-(trifluoromethyl)pyridin-2-yl)-1,3a,4,5,10,11a-hexahydro-2H-benzo[b]pyrrolo[2,3-f][1,4]diazocine-2,11(3H)-dione]"
15,2.8e+06 M⁻¹ s⁻¹,"CC#CC(=O)N1CCn2cc(CN3C[C@H]4CC(=O)N(c5cc(C(F)(F)F)cc(C)n5)[C@@H]4C(=O)N(C)c4cccc(C)c43)nc2C1 [Example 201, (3aR,11aS)-5-((7-(but-2-ynoyl)-5,6,7,8-tetrahydro-imidazo[1,2-a]pyr-azin-2-yl)methyl)-6,10-dimethyl-1-(6-methyl-4-(tri-fluoromethyl)pyr-idin-2-yl)-1,3a,4,5,10,11a-hexa-hydro-2H-benzo [b]pyrrolo[2,3-f] [1,4]diazocine-2,11(3H)-dione]"
